What was measured:
[1] = molecular target: T1, purified LasB protein from P. aeruginosa (Pseudomonas aeruginosa, UniProt P14756); experiment: Fluorometric assay to determine Ki (Abz-Ala-Gly-Leu-Ala-p-Nitro-Benzyl-Amide substrate); type: biochemical
T1 construct: purchased Merck or Charles River Laboratories
Procedure: (§1) Experiments were therefore conducted (1) to measure the potency of inhibition of compounds of the invention against purified Pseudomonas aeruginosa LasB enzyme and also experiments were conducted (2) to measure the ability of compounds of the invention to inhibit LasB-catalysed elastin degradation. The first assay uses a commercial fluorescent synthetic peptide and purified LasB enzyme. The LasB hydrolysis kinetics are measured allowing the determination of the IC50 and Ki of the inhibitors; the second is a more physiological assay using dialysed Pseudomonas aeruginosa supernatant as source of enzyme, plus its natural substrate Elastin. It is an "end point assay" that determines the percentage of LasB inhibition by each compound for one particular time point and inhibitor concentration. Technical details are described below:
This assay uses commercially available substrate (Abz-Ala-Gly-Leu-Ala-p-Nitro-Benzyl-Amide (Ex: 340 nm, Em: 415 nm) from Peptide International) and purified LasB protein from P. aeruginosa (provided by Merck or Charles River Laboratories). It is performed to determine LasB elastase activity and assess compound inhibition in 96-well plate format. All compounds of Formula (I) were assessed using the method described below.
Method: 10 to 140 ng/ml purified LasB is incubated with 250 µM Abz-Ala-Gly-Leu-Ala-p-Nitro-Benzyl-Amide in 50 mM Tris-HCl pH 7.4, 2.5 mM CaCl2, 0.01% of Triton X100 at 37°C. LasB activity (corresponding to fluorescence emission induced by substrate hydrolysis) is measured over 30 min at 37°C with a fluorescence plate reader such as the Perkin Elmer Envision or similar. Different range of inhibitor concentrations are routinely assessed depending of inhibitor potency from 0.0016 to 200 µM (2-fold dilutions series) in order to determine IC50.
The equation used to calculate the Ki from IC50 is: Ki = IC50 / (1+([S]/Km)) where [S] = 250 µM and Km = 214 µM.

LasB = molecular target: T2, LasB (Pseudomonas aeruginosa, UniProt P14756); experiment: Elastin assay to determine % inhibition (Elastin Congo-Red, dialysed culture supernatant); type: biochemical, P. aeruginosa PAO1; conditions: read-out: Elastin hydrolysis % inhibition @ 50 / 25 µM inhibitor concentration
T2 construct: uses as source of enzyme dialysed supernatant from P. aeruginosa PAO1; endogenous in cells; host or cells: P. aeruginosa PAO1 culture supernatant, filtered and dialysed
T2 sequence (P14756 198-498): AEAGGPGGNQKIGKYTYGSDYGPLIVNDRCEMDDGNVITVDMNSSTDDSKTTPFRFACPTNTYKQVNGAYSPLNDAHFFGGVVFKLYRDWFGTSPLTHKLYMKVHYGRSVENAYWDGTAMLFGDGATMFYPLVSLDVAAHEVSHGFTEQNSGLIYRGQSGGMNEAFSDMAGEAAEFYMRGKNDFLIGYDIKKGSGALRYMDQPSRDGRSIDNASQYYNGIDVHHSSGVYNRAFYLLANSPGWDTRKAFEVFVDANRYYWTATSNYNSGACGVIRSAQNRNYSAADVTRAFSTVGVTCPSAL
Procedure: as §1
The Elastin assay uses as source of enzyme dialysed supernatant from P. aeruginosa PAO1 and the Elastin Congo-Red as substrate. The natural LasB substrate, elastin, is complexed with the congo-red dye (Elastin Congo-Red, ECR). The elastolysis activity from the culture supernatant will degrade elastin and release the congo-red dye into the supernatant. This red dye release can be measured with a spectrophotometer.
Method: To determine LasB elastase activity and assess compound inhibition, an overnight culture of P. aeruginosa strain PAO1 is diluted in LB medium. After reaching an OD600nm of 0.6, this culture is diluted and incubated for additional 18-24 hours in a shaking incubator. Culture supernatants are recovered by centrifugation and filtrated through a […] filter. These supernatants are dialysed (filtration molecules < 20kDa) into a 50 mM Tris-HCl pH 7.4, 2.5 mM CaCl2 solution at 4°C under agitation for 24 hours. Supernatant dialysed is then mixed volume/volume with the ECR suspension (20 mg/mL of ECR in 100 mM Tris-HCl pH 7.4 buffer supplemented with 1 mM CaCl2) supplemented with Triton X100 (final concentration of 0.01%) in presence of DMSO (positive control) and/or different concentrations of compound (routinely 50 to 1.56 µM). As a negative control, the dialysed supernatant is replaced by Tris-HCl solution (50 mM Tris-HCl pH 7.4, 2.5 mM CaCl2). The mixed reaction is then incubated overnight in a 37°C shaking incubator. The reaction supernatant is recovered by centrifugation and the release of congo-red is measured by its absorbance at 495 nm (OD495nm).
Percentage inhibition is determined using the following equation: ((OD495nmvalue of positive control−OD495nmvalue of negative control)−(OD495nmvalue of treated supernatant−OD495nmvalue of positive control))/(OD495nmvalue of positive control−OD495nmvalue of negative control) × 100. [formula]

T1 sequence (P14756 198-498): as above

Structure (SMILES) | Ki [1] [nM] | inhibition at 25 µM (LasB) [%]
COc1cccc(-c2csc(CNC(=O)C3(CC(=O)O)Cc4ccccc4C3)n2)c1 [Example 5, 2-[2-[[4-(3-methoxyphenyl)thiazol-2-yl]methylcarbamoyl]indan-2-yl]acetic acid] | 50 to 200 | 60 to 75
COc1cc(OCc2cccnc2)ccc1-c1csc(CNC(=O)C2(CC(=O)O)Cc3ccccc3C2)n1 [Example 78, 2-[2-[[4-[2-methoxy-4-(3-pyridylmethoxy)phenyl]thiazol-2-yl]methylcarbamoyl]indan-2-yl]acetic acid] | < 50 | > 75
Cn1cc[n+](C)c1CCOc1ccc(-c2csc(CNC(=O)C3(CC(=O)[O-])Cc4ccccc4C3)n2)cc1 [Example 87, 2-[2-[[4-[4-[2-(1,3-dimethylimidazol-1-ium-2-yl)ethoxy]phenyl]thiazol-2-yl]methylcarbamoyl]indan-2-yl]acetate] | 50 to 200 | 10 to 60
O=C(O)CC1(C(=O)NCc2ncc(-c3ccccc3)s2)Cc2ccccc2C1 [Example 2, 2-[2-[(5-phenylthiazol-2-yl)methylcarbamoyl]indan-2-yl]acetic acid] | 200 to 10000 | 10 to 60
COc1ccccc1-c1csc(CNC(=O)C2(CC(=O)O)Cc3ccccc3C2)n1 [Example 146, 2-[2-[[4-(2-methoxyphenyl)thiazol-2-yl]methylcarbamoyl]indan-2-yl]acetic acid] | 50 to 200 | 60 to 75
COc1ccc(-c2csc(CNC(=O)C3(CC(=O)O)Cc4ccccc4C3)n2)cc1C(=O)N1CCC(N(C)C)CC1 [Example 137, 2-[2-[[4-[3-[4-(dimethylamino)piperidine-1-carbonyl]-4-methoxy-phenyl]thiazol-2-yl]methylcarbamoyl]indan-2-yl]acetic acid] | 50 to 200 | 10 to 60
C[N+]1(CCc2ccc(-c3csc(CNC(=O)C4(CC(=O)[O-])Cc5ccccc5C4)n3)cn2)CCOCC1 [Example 141, 2-[2-[[4-[6-[2-(4-methylmorpholin-4-ium-4-yl)ethyl]-3-pyridyl]thiazol-2-yl]methylcarbamoyl]indan-2-yl]acetate] | 50 to 200 | 60 to 75
C[N+]1(C)CCN(S(=O)(=O)c2cccc(-c3csc(CNC(=O)C4(CC(=O)[O-])Cc5ccccc5C4)n3)c2)CC1 [Example 128, 2-[2-[[4-[3-(4,4-dimethylpiperazin-4-ium-1-yl)sulfonylphenyl]thiazol-2-yl]methylcarbamoyl]indan-2-yl]acetate] | 200 to 10000 | 10 to 60
COc1ccc(-c2csc(CNC(=O)C3(CC(=O)[O-])Cc4ccccc4C3)n2)cc1C(=O)N1CCC([N+](C)(C)C)CC1 [Example 138, 2-[2-[[4-[4-methoxy-3-[4-(trimethylammonio)piperidine-1-carbonyl]phenyl]thiazol-2-yl]methylcarbamoyl]indan-2-yl]acetate] | 200 to 10000 | 10 to 60
CC(=O)N1CCN(CCCn2cc(-c3csc(CNC(=O)C4(CC(=O)O)Cc5ccccc5C4)n3)cn2)CC1 [Example 106, 2-[2-[[4-[1-[3-(4-acetylpiperazin-1-yl)propyl]pyrazol-4-yl]thiazol-2-yl]methylcarbamoyl]indan-2-yl]acetic acid] | 50 to 200 | 60 to 75
Cn1ccc(-c2csc(CNC(=O)C3(CC(=O)O)Cc4ccccc4C3)n2)n1 [Example 90, 2-[2-[[4-(1-methylpyrazol-3-yl)thiazol-2-yl]methylcarbamoyl]indan-2-yl]acetic acid] | 200 to 10000 | 60 to 75
COc1cc(N2CC(N(C)C)C2)ccc1-c1csc(CNC(=O)C2(CC(=O)O)Cc3ccccc3C2)n1 [Example 32, 2-[2-[[4-[4-[3-(dimethylamino)azetidin-1-yl]-2-methoxy-phenyl]thiazol-2-yl]methylcarbamoyl]indan-2-yl]acetic acid] | 50 to 200 | > 75
CCc1ccccc1-c1csc(CNC(=O)C2(CC(=O)O)Cc3ccccc3C2)n1 [Example 147, 2-[2-[[4-(2-ethylphenyl)thiazol-2-yl]methylcarbamoyl]indan-2-yl]acetic acid] | 50 to 200 | 60 to 75
CN(C)CCNS(=O)(=O)c1cccc(-c2csc(CNC(=O)C3(CC(=O)O)Cc4ccccc4C3)n2)c1 [Example 129, 2-[2-[[4-[3-[2-(dimethylamino)ethylsulfamoyl]phenyl]thiazol-2-yl]methylcarbamoyl]indan-2-yl]acetic acid] | 200 to 10000 | 60 to 75
CN1CCN(C(=O)COc2ccc(-c3csc(CNC(=O)C4(CC(=O)O)Cc5ccccc5C4)n3)cc2)CC1 [Example 46, 2-[2-[[4-[4-[2-(4-methylpiperazin-1-yl)-2-oxo-ethoxy]phenyl]thiazol-2-yl]methylcarbamoyl]indan-2-yl]acetic acid] | 50 to 200 | > 75
CN1CCN(C(=O)c2cccc(-c3csc(CNC(=O)C4(CC(=O)O)Cc5ccccc5C4)n3)c2)CC1 [Example 23, 2-[2-[[4-[3-(4-methylpiperazine-1-carbonyl)phenyl]thiazol-2-yl]methylcarbamoyl]indan-2-yl]acetic acid] | 200 to 10000 | 60 to 75
Cc1nn(C)cc1-c1csc(CNC(=O)C2(CC(=O)O)Cc3ccccc3C2)n1 [Example 93, 2-[2-[[4-(1,3-dimethylpyrazol-4-yl)thiazol-2-yl]methylcarbamoyl]indan-2-yl]acetic acid] | 50 to 200 | 60 to 75
CN(C)C1CN(c2ccc(-c3csc(CNC(=O)C4(CC(=O)O)Cc5ccccc5C4)n3)cn2)C1 [Example 35, 2-[2-[[4-[6-[3-(dimethylamino)azetidin-1-yl]-3-pyridyl]thiazol-2-yl]methylcarbamoyl]indan-2-yl]acetic acid] | 50 to 200 | 60 to 75
COc1cc(OCc2cc[n+](C)cc2)ccc1-c1csc(CNC(=O)C2(CC(=O)[O-])Cc3ccccc3C2)n1 [Example 75, 2-[2-[[4-[2-methoxy-4-[(1-methylpyridin-1-ium-4-yl)methoxy]phenyl]thiazol-2-yl]methylcarbamoyl]indan-2-yl]acetate] | 50 to 200 | 60 to 75
CN1CCN(CCCn2cc(-c3csc(CNC(=O)C4(CC(=O)O)Cc5ccccc5C4)n3)cn2)CC1=O [Example 116, 2-[2-[[4-[1-[3-(4-methyl-3-oxo-piperazin-1-yl)propyl]pyrazol-4-yl]thiazol-2-yl]methylcarbamoyl]indan-2-yl]acetic acid] | 50 to 200 | 60 to 75
COc1ccc(S(=O)(=O)N2CCC([N+](C)(C)C)CC2)cc1-c1csc(CNC(=O)C2(CC(=O)[O-])Cc3cc(F)c(F)cc3C2)n1 [Example 126, 2-[5,6-difluoro-2-[[4-[2-methoxy-5-[[4-(trimethylammonio)-1-piperidyl]sulfonyl]phenyl]thiazol-2-yl]methylcarbamoyl]indan-2-yl]acetate] | 50 to 200 | 60 to 75
COc1ccc(-c2csc(CNC(=O)C3(CC(=O)[O-])Cc4cc(F)c(F)cc4C3)n2)cc1S(=O)(=O)N1CCC([N+](C)(C)C)CC1 [Example 124, 2-[5,6-difluoro-2-[[4-[4-methoxy-3-[[4-(trimethylammonio)-1-piperidyl]sulfonyl]phenyl]thiazol-2-yl]methylcarbamoyl]indan-2-yl] acetate] | 50 to 200 | 60 to 75
